# Results published in US8507489B2, “Bicyclic triazoles as protein kinase modulators” (SGX Pharmaceuticals, Inc., priority 2006, dated 2013).
# Assays:
# CDK1/cyclin B = CDK1/cyclin B (Homo sapiens, UniProt P06493); assay: SelectScreen Kinase Profiling CDK1/cyclin B; type: biochemical
# Excerpt: (§1) SelectScreen™ is a trademark screening assay protocol for kinases developed by Invitrogen Corporation, Madison, Wis. Details on assay conditions can be found on the company's website.
# KIT T670I = KIT T670I (Homo sapiens, UniProt P10721, T670I); assay: SelectScreen Kinase Profiling KIT T670I; type: biochemical
# Excerpt: as §1
# PRKCD (PKC delta) = PRKCD (PKC delta) (Homo sapiens, UniProt Q05655); assay: SelectScreen Kinase Profiling PRKCD; type: biochemical
# Excerpt: as §1
# ABL1 T315I = ABL1 T315I (Homo sapiens, UniProt P00519, T315I); assay: SelectScreen Kinase Profiling ABL1 T315I; type: biochemical
# Excerpt: as §1
# MAP2K1 (MEK1) = MAP2K1 (MEK1) (Homo sapiens, UniProt Q02750); assay: SelectScreen Kinase Profiling MAP2K1; type: biochemical
# Excerpt: as §1
# FES (FPS) = FES (FPS) (Homo sapiens, UniProt P07332); assay: SelectScreen Kinase Profiling FES; type: biochemical
# Excerpt: as §1
# PTK2B (FAK2) = PTK2B (FAK2) (Homo sapiens, UniProt Q14289); assay: SelectScreen Kinase Profiling PTK2B; type: biochemical
# Excerpt: as §1
# IKBKB (IKK beta) = IKBKB (IKK beta) (Homo sapiens, UniProt O14920); assay: SelectScreen Kinase Profiling IKBKB; type: biochemical
# Excerpt: as §1
# CSF1R (FMS) = CSF1R (FMS) (Homo sapiens, UniProt P07333); assay: SelectScreen Kinase Profiling CSF1R; type: biochemical
# CSF1R (FMS), sequence (P07333 20-972): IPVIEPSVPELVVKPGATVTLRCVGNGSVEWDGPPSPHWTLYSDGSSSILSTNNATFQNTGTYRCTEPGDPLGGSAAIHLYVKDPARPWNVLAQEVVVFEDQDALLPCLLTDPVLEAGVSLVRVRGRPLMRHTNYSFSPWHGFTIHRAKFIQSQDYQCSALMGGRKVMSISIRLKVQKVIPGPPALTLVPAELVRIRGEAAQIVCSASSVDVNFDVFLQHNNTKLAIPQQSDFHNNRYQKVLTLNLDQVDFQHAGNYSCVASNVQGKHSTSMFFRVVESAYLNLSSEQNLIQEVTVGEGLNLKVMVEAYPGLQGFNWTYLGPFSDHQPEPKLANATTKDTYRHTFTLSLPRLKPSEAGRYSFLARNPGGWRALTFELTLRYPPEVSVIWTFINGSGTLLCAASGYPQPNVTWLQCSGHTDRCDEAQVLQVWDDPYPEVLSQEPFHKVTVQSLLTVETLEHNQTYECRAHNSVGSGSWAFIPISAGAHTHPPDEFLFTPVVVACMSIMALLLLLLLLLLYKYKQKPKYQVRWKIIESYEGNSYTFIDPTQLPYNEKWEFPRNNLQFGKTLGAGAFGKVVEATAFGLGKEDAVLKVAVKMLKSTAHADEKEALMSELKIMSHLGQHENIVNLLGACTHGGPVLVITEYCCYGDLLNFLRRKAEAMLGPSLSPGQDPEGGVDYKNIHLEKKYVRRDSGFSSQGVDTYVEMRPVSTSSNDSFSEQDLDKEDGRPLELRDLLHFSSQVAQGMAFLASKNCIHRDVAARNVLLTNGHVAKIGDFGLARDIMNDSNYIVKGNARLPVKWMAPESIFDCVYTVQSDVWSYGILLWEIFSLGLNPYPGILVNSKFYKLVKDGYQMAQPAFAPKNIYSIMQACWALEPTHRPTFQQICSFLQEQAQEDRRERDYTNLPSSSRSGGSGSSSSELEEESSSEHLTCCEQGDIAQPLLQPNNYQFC
# Excerpt: as §1
# MAPK1 (ERK2) = MAPK1 (ERK2) (Homo sapiens, UniProt P28482); assay: SelectScreen Kinase Profiling MAPK1; type: biochemical
# MAPK1 (ERK2), sequence (P28482 whole entry): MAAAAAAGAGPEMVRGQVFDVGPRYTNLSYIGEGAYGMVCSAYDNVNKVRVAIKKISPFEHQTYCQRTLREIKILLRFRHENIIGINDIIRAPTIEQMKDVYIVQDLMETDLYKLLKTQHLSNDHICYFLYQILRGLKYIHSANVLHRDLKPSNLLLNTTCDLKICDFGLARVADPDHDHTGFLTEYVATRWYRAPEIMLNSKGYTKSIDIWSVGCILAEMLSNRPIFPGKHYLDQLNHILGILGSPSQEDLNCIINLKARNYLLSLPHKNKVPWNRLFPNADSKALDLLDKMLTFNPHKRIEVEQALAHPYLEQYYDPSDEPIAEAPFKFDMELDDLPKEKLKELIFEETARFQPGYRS
# Excerpt: as §1
# EGFR (ErbB1) = EGFR (ErbB1) (Homo sapiens, UniProt P00533); assay: SelectScreen Kinase Profiling EGFR; type: biochemical
# EGFR (ErbB1), sequence (P00533 25-1210): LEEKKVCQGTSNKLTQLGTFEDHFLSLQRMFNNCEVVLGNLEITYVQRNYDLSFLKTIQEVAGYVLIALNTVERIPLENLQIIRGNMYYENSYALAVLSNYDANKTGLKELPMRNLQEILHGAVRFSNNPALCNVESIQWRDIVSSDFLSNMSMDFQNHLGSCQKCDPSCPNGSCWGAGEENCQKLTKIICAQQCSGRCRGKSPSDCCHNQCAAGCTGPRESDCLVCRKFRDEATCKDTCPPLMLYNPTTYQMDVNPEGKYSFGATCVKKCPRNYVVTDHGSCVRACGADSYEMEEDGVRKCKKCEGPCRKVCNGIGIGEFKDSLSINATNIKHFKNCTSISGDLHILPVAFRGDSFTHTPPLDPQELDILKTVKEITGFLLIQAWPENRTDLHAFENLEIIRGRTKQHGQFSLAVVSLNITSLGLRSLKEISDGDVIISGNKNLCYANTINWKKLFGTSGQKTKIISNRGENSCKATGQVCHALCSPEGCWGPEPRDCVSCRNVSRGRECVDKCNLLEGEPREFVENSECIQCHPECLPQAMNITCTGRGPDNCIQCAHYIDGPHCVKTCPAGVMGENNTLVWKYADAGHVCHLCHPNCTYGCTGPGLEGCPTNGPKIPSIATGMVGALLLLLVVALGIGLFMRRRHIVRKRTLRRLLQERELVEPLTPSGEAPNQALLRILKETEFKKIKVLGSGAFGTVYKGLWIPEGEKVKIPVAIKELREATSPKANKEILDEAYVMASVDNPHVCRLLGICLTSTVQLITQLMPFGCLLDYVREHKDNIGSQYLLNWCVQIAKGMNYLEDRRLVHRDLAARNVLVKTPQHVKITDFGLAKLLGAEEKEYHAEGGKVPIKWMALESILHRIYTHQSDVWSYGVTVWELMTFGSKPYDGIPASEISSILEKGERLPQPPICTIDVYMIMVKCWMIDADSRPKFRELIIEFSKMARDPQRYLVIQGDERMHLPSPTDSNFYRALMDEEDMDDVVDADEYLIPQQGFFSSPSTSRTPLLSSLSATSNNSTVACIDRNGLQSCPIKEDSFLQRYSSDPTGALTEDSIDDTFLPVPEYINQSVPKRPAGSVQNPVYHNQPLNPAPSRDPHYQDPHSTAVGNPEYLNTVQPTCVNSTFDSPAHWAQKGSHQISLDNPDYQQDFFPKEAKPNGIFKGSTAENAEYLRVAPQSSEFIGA
# Excerpt: as §1
# NTRK3 (TRKC) = NTRK3 (TRKC) (Homo sapiens, UniProt Q16288); assay: SelectScreen Kinase Profiling NTRK3; type: biochemical
# NTRK3 (TRKC), sequence (Q16288 32-839): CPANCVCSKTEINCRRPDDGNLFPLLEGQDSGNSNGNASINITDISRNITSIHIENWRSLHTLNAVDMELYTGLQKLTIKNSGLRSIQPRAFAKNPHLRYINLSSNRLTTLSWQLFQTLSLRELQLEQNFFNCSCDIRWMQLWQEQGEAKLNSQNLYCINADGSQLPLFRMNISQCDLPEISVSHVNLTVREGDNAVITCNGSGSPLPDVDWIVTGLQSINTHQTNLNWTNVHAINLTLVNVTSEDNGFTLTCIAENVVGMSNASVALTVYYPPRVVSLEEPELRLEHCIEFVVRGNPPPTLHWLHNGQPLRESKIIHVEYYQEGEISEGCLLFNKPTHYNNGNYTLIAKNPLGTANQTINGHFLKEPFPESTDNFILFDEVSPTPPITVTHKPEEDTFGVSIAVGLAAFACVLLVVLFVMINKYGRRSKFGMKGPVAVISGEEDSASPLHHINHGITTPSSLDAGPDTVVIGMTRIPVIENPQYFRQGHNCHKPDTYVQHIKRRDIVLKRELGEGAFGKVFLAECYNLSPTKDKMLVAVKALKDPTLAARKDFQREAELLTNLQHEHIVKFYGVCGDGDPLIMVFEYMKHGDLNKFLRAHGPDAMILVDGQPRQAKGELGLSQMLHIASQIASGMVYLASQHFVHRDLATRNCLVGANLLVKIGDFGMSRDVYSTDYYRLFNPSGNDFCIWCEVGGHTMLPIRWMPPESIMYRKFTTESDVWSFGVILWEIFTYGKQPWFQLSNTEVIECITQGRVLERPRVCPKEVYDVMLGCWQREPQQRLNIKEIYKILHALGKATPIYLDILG
# Excerpt: as §1
# PDGFRA T674I = PDGFRA T674I (Homo sapiens, UniProt P16234, T674I); assay: SelectScreen Kinase Profiling PDGFRA T674I; type: biochemical
# PDGFRA T674I, sequence (P16234 24-1089 T674I): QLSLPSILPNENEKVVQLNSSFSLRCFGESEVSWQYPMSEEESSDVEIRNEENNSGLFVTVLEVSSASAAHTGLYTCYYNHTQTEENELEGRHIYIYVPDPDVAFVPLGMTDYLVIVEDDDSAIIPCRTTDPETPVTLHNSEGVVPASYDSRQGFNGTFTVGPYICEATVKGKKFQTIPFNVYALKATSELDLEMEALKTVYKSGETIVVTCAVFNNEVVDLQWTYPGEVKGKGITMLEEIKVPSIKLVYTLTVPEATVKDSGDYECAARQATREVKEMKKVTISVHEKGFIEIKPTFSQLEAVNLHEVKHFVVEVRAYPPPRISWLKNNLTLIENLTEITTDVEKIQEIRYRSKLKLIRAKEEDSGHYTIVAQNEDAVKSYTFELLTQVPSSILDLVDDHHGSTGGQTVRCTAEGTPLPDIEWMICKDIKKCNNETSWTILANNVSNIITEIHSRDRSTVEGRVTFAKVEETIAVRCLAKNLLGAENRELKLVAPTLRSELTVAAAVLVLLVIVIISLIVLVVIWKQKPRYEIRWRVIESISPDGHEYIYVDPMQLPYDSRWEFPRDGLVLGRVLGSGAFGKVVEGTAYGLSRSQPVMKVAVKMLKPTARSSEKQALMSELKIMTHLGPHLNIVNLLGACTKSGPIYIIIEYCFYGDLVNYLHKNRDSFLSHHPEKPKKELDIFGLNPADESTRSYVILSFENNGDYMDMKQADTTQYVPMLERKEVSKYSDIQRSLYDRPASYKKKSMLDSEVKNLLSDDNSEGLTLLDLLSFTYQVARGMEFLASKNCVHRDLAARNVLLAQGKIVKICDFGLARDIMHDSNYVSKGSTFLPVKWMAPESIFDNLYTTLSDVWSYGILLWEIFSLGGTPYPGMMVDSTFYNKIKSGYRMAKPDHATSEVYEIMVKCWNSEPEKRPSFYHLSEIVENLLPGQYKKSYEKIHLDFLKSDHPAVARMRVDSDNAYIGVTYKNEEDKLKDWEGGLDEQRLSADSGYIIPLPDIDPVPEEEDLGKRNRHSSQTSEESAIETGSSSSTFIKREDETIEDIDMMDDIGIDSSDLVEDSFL
# Excerpt: as §1
# IGF1R = IGF1R (Homo sapiens, UniProt P08069); assay: SelectScreen Kinase Profiling IGF1R; type: biochemical
# Excerpt: as §1
# ROS1 = ROS1 (Homo sapiens, UniProt P08922); assay: SelectScreen Kinase Profiling ROS1; type: biochemical
# Excerpt: as §1
# TYRO3 (RSE) = TYRO3 (RSE) (Homo sapiens, UniProt Q06418); assay: SelectScreen Kinase Profiling TYRO3; type: biochemical
# Excerpt: as §1
# MERTK (cMER) = MERTK (cMER) (Homo sapiens, UniProt Q12866); assay: SelectScreen Kinase Profiling MERTK; type: biochemical
# Excerpt: as §1
# RET = RET (Homo sapiens, UniProt P07949); assay: SelectScreen Kinase Profiling RET; type: biochemical
# Excerpt: as §1
# PLK1 = PLK1 (Homo sapiens, UniProt P53350); assay: SelectScreen Kinase Profiling PLK1; type: biochemical
# PLK1, sequence (P53350 whole entry): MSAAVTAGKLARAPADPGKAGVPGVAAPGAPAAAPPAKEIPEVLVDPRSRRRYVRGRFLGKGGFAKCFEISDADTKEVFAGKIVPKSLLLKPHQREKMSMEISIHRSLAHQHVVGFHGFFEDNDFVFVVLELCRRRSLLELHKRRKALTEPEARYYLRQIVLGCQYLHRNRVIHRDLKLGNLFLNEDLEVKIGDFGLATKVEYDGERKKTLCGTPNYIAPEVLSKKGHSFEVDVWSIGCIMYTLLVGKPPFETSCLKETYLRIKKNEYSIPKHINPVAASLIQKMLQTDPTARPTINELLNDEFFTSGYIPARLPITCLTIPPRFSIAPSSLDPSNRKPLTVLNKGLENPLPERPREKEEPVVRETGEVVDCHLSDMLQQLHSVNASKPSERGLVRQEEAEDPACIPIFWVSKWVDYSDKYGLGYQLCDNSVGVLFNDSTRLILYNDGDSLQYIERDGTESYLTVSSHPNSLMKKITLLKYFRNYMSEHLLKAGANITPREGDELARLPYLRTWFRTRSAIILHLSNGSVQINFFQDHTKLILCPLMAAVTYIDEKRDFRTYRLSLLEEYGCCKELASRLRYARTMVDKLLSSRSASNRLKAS
# Excerpt: as §1
# JAK2 JH1 JH2 V617F = molecular target: T1, JAK2 JH1 JH2 V617F (Homo sapiens, UniProt O60674, V617F); assay: SelectScreen Kinase Profiling JAK2 JH1 JH2 V617F; type: biochemical
# T1 construct: JAK2 JH1 JH2 V617F
# Excerpt: as §1
# FGFR3 = FGFR3 (Homo sapiens, UniProt P22607); assay: SelectScreen Kinase Profiling FGFR3; type: biochemical
# Excerpt: as §1
# ALK = ALK (Homo sapiens, UniProt Q9UM73); assay: SelectScreen Kinase Profiling ALK; type: biochemical
# Excerpt: as §1
# GSK3B (GSK3 beta) = GSK3B (GSK3 beta) (Homo sapiens, UniProt P49841); assay: SelectScreen Kinase Profiling GSK3B; type: biochemical
# Excerpt: as §1
# RPS6KB1 (p70S6K) = RPS6KB1 (p70S6K) (Homo sapiens, UniProt P23443); assay: SelectScreen Kinase Profiling RPS6KB1; type: biochemical
# Excerpt: as §1
# GRK4 = GRK4 (Homo sapiens, UniProt P32298); assay: SelectScreen Kinase Profiling GRK4; type: biochemical
# Excerpt: as §1
# AURKA (Aurora A) = AURKA (Aurora A) (Homo sapiens, UniProt O14965); assay: SelectScreen Kinase Profiling AURKA; type: biochemical
# Excerpt: as §1
# AKT1 (PKB alpha) = AKT1 (PKB alpha) (Homo sapiens, UniProt P31749); assay: SelectScreen Kinase Profiling AKT1; type: biochemical
# Excerpt: as §1
# GTL16 cells = assay: 96-well XTT cell survival assay (GTL16 cells); type: cell-based; settings: Homo sapiens, GTL 16, 72 hours
# Protocol: GTL16 cells were maintained in DMEM Medium supplemented with 10% fetal bovine serum (FBS) 2 mM L-Glutamine and 100 units penicillin/100 μg streptomycin, at 37° C. in 5% CO2.
# Compounds were tested in the following assays in duplicate.
# 96-well XTT assay (GTL16 cells): One day prior to assay the growth media was aspirated off and assay media was added to cells. On the day of the assay, the cells were grown in assay media containing various concentrations of compounds (duplicates) on a 96-well flat bottom plate for 72 hours at 37° C. in 5% CO2. The starting cell number was 5000 cells per well and volume was 120 μl. At the end of the 72-hour incubation, 40 μl of XTT labeling mixture (50:1 solution of sodium 3′-[1-(phenylaminocarbonyl)-3,4-tetrazolium]-bis (4-methoxy-6-nitro) benzene sulfonic acid hydrate and Electron-coupling reagent: PMS (N-methyl dibenzopyrazine methyl sulfate) were added to each well of the plate. After an additional 5 hours of incubation at 37° C., the absorbance reading at 450 nm with a background correction of 650 nm was measured with a spectrophotometer.
# TEK (Tie2) = TEK (Tie2) (Homo sapiens, UniProt Q02763); assay: SelectScreen Kinase Profiling TEK; type: biochemical
# Excerpt: as §1
Compound,inhibition at 1 µM (CDK1/cyclin B),inhibition at 1 µM (KIT T670I),inhibition at 1 µM (PRKCD (PKC delta)),inhibition at 1 µM (ABL1 T315I),inhibition at 1 µM (MAP2K1 (MEK1)),inhibition at 1 µM (FES (FPS)),inhibition at 1 µM (PTK2B (FAK2)),inhibition at 1 µM (IKBKB (IKK beta)),inhibition at 1 µM (CSF1R (FMS)),inhibition at 1 µM (MAPK1 (ERK2)),inhibition at 1 µM (EGFR (ErbB1)),inhibition at 1 µM (NTRK3 (TRKC)),inhibition at 1 µM (PDGFRA T674I),inhibition at 1 µM (IGF1R),inhibition at 1 µM (ROS1),inhibition at 1 µM (TYRO3 (RSE)),inhibition at 1 µM (MERTK (cMER)),inhibition at 1 µM (RET),inhibition at 1 µM (PLK1),inhibition at 1 µM (JAK2 JH1 JH2 V617F),further results
"Cn1cc(-c2ccc3nnc(Sc4ccc5ncccc5c4)n3n2)cn1 [Compound 4, 6-[6-(1-Methyl-1H-pyrazol-4-yl)-[1,2,4]triazolo[4,3-b]pyridazin-3-ylsulfanyl]-quinoline]",5%,-12%,4%,11%,16%,5%,6%,-5%,19%,9%,-2%,7%,-9%,-3%,7%,19%,7%,5%,0%,-11%,inhibition at 1 µM (FGFR3): -4%; inhibition at 1 µM (ALK): -10%; inhibition at 1 µM (GSK3B (GSK3 beta)): 5%; inhibition at 1 µM (RPS6KB1 (p70S6K)): 3%; inhibition at 1 µM (GRK4): 2%; inhibition at 1 µM (AURKA (Aurora A)): 18%; inhibition at 1 µM (AKT1 (PKB alpha)): 5%; IC50 (GTL16 cells): ≤ 100 nM; inhibition at 1 µM (TEK (Tie2)): 8%
"Cc1ccc2nnc(Sc3ccc4ncc(-c5cnn(C)c5)cc4c3)n2n1 [Compound 41, 3-(1-Methyl-1H-pyrazol-4-yl)-6-(6-methyl-[1,2,4]triazolo[4,3-b]pyridazin-3-ylsulfanyl)-quinoline]",17%,4%,5%,47%,3%,1%,12%,1%,79%,0%,0%,85%,-1%,6%,41%,22%,10%,21%,0%,9%,inhibition at 1 µM (FGFR3): 26%; inhibition at 1 µM (ALK): 23%; inhibition at 1 µM (GSK3B (GSK3 beta)): 1%; inhibition at 1 µM (RPS6KB1 (p70S6K)): 5%; inhibition at 1 µM (GRK4): -4%; inhibition at 1 µM (AURKA (Aurora A)): 49%; inhibition at 1 µM (AKT1 (PKB alpha)): -1%; IC50 (GTL16 cells): ≤ 100 nM; inhibition at 1 µM (TEK (Tie2)): 4%
